In US10220028B2, “Thio compounds” (The United States of America, as represented by the …, priority 2011, dated 2019):
Entries after “also recorded” stand apart in the source; their conditions may differ.

How the values were obtained:
IFN-γ = test: Generation of IFN-γ by TCR-stimulated T cells (cytokine ELISA); type: cell-based, human; settings: FIG. 5A; for concentration at which significant inhibition of IFN-γ generation begins: TCR-stimulated T cells
Method: (§1) FIGS. 5A-5C. Concentration-dependence of effects of certain compounds on human T cell generation of cytokines. Each column and bar depicts the mean±S.D. of the results of cytokine ELISAs of supernates from T cells of a total of four healthy subjects, of whom two were young and two were old, after three days of incubation with anti-CD3+ anti-CD28 antibodies without (control=100%) and with a drug. The mean±S.D. of control (100%) values for IFN-γ, IL-2 and IL-17, respectively, where 30,915±11,206, 5.8±3.4 and 1149±372 pg/ml. A=IFN-γ, B=IL-2 and C=IL-17. Statistical significance of differences from the controls without an IMD was calculated by a two-sample t test and indicated by + for p<0.05,*for p<0.01 and**for p<0.001.
(§2) The capacity of several different compounds to alter the generation of three distinct immune cytokines by TCR-stimulated T cells of young and old subjects was investigated.

IL-2 = test: Generation of IL-2 by TCR-stimulated T cells (cytokine ELISA); type: cell-based, human; settings: FIG. 5B; for concentration at which significant inhibition of IL-2 generation begins: stimulated T cells
Method: as §1, §2

IL-17 = test: Generation of IL-17 by TCR-stimulated T cells (cytokine ELISA); type: cell-based, human; settings: FIG. 5C
Method: as §1
No compound was capable of enhancing TCR-stimulated T cell generation of IL-17. However, there was significant inhibition of generation of IL-17 by dithiolenalidomide at 0.1 μM and higher, lenalidomide at 0.3 μM and higher, dithiothalidomide at 3 μM and higher, and thalidomide only at 100 μM (FIG. 5C). None of the thalidomide-type drugs altered cytokine generation alone in the absence of TCR-directed stimulation (data not shown).

TNF-α protein = TNF-α protein assay (ELISA) in LPS stimulated RAW 264.7 culture media; type: cell-based, mouse; settings: LPS stimulated RAW 264.7 cells; vs DMSO control
Method: TNF-α protein levels were measured by use of an ELISA specific for mouse TNF-α protein (BioLegend, San Diego, Calif.), O.D.s measured at 450 nm λ, obtained from the unknown samples were compared to a TNF-α protein standard curve (7.8 to 500 pg/ml) and the calculated TNF-α levels are expressed as a % change from their appropriate control or as pg/ml.

[1] = test system: LPS stimulated RAW 264.7 cells; test: Cellular proliferation/health, MTS assay; type: cell-based; settings: for cell stress (changes in O.D. values of the MTS assay): FIG. 4
Method: The CellTiter 96 AQueous One Solution Cell Proliferation Assay (Promega, Madison, Wis.) is routinely used as an assay of cell proliferation, and was used herein, according to the manufacturer's recommendations. […] Optical densities were measured after 1 to 2 hours incubation and were expressed as a % change from their appropriate control.

RAW 264.7 cells = test: Cellular toxicity, lactate dehydrogenase (LDH) assay; type: cell-based; settings: from 60 min after addition of LPS, vs DMSO control, FIG. 1
nitrite = test: Nitrite levels, Griess Reagent System assay; type: cell-based; settings: LPS stimulated RAW 264.7 media; FIG. 3
Method: Nitrite levels in the culture media were measured by use of the Griess Reagent System (Promega, Madison, Wis.), following the manufacturer's protocol. The O.D. of unknown samples was read at 520 nm A, compared to a sodium nitrite standard curve (1.5 μM to 100 μM) and nitrite measured media concentrations expressed as a % change from their appropriate control.

Row | SMILES | concentration at which significant inhibition of IFN-γ generation begins (IFN-γ) [µM] | concentration at which significant inhibition of IL-2 generation begins (IL-2) [µM] | concentration at and above which IL-17 generation is significantly inhibited (IL-17) [µM] | levels of TNF-α protein in cell culture media (TNF-α protein) | cellular stress (MTS assay) ([1]; concentrations that far exceed 20 μM, LPS stimulated RAW 264.7 cells, FIG. 3) | toxicity compared to dithiothalidomide ([1]; particularly at drug concentrations or 10 μm or greater) | cellular stress (O.D. values, LDH assay) (RAW 264.7 cells) | levels of nitrite in cell culture media (nitrite) | cellular health (MTS assay), relative to 100% control ([1]; 20 μM, LPS stimulated RAW 264.7 cells, FIG. 3) | cellular stress (MTS assay) ([1]; 20 μM, LPS stimulated RAW 264.7 cells, vs DMSO control, FIG. 3) | peak enhancement of IFN-γ generation (IFN-γ; at 3 μM) | mean maximal enhancement of IL-2 generation (IL-2; at 1 μM, mixed group of young and old subjects) [fold] | cell stress (changes in O.D. values of the MTS assay) [1] | inhibition of IFN-γ generation (IFN-γ; at 100 μM) | effect on IL-2 generation (IL-2; at up to 100 μM)
1 | Nc1cccc2c1CN(C1CCC(=S)NC1=O)C2=S (stereo not drawn) [dithiolenalidomide, 1,6′-Dithiolenalidomide] | ≥ 1 | ≥ 3 | ≥ 0.1 | retained TNF-α inhibitory effect; also recorded: reduced the levels of TNF-α protein | failed to induce any cellular stress | less toxic compared to dithiothalidomide | no evidence of cellular stress | reduced the levels of nitrite |  |  |  |  |  |  | 
2 | O=C1NC(=S)CCC1N1C(=O)c2ccccc2C1=S (stereo not drawn) [dithiothalidomide, 3,6′-Dithiothalidomide] | ≥ 3 | ≥ 30 | ≥ 3 | reduced the levels of TNF-α protein |  |  | evidence of cellular stress | reduced the levels of nitrite | reduction from the 100% control values | evidence of cellular stress |  |  |  |  | 
3 | Nc1cccc2c1CN(C1CCC(=O)NC1=O)C2=O (stereo not drawn) [lenalidomide] |  |  | ≥ 0.3 |  |  |  |  |  |  |  | nearly three-fold | 9.5 | Neither thalidomide and lenalidomide treatment induced any cell stress |  | 
4 | O=C1CCC(N2C(=O)c3ccccc3C2=O)C(=O)N1 (stereo not drawn) [thalidomide, N-α-phthalimidoglutarimide] |  |  | 100 |  |  |  |  |  |  |  |  |  | Neither thalidomide and lenalidomide treatment induced any cell stress | only modest inhibition | no detectable effect
